13 compounds from patent US20250176550A1, “HERBICIDE COMPOSITION OF URACIL COMPOUND CONTAINING CARBOXYLATE FRAGMENT AND THE USE THEREOF” (Jiangsu Flag Chemical Industry Co., Ltd., priority 2022, published 2025) can be followed below.

What all share (type): in vivo
Assay [1] concerns alopecurus japonicus. Description: Indoor virulence and combined effect, greenhouse pot test, post-emergence stem and leaf spray, fresh weight inhibition. Particulars: for inhibition at 25 g/ha: 25 g a.i./ha; for Fresh weight inhibition rate %, B single agent: Table 25. How it is done:
(§1) The active ingredients A and B are respectively screened and an indoor combined effect of the composition on weeds was evaluated by an indoor test and a field test, to determine a combined effect of the composition on weeds.
(§2) Quantitative seeds of Poaceae weeds (echinochloa crusgalli, Digitaria sanguinalis, setaria viridis, Eleusine indica, avena fatua, alopecurus japonicus, alopecurus aequalis, Lolium multiflorum) and broadleaf weeds (eclipta prostrata, rorippa dubia, Abutilon theophrasti, conyza canadensis, veronica persica, myosoton aquaticum, polygonum lapathifolium, galium aparine var. tenerum, alisma plantago-aquatica, geranium carolinianum) were sown in paper cup containing nutrient soil with a diameter of 7 cm, covered with soil for 1 cm after sowing. After pressing and watering, they were cultured in a greenhouse according to a conventional method. Poaceae weeds grew to 3˜4 leaf stage, broad-leaved weeds grew to 4˜6 leaf stage, spraying treatment to both stem and leaf was performed; and pre-seedling soil spray treatment was performed 24 hours after sowing. Following an experimental design dosage, a WP-2000 walking spray tower (spindle speed 96 mm/r, spray height 200 mm, effective spray amplitude of nozzle 350 mm, nozzle flow rate 390 mL/min, nozzle walking speed 210 mm/s) was used for the spray treatment. The experiment was repeated three times. After being treated, a sample material is placed in an operation hall, and after the drug solution is naturally dried out, the sample material is placed in a greenhouse and managed according to the conventional method. A reaction of weeds to the drug agent is observed and recorded, and a regularly visual check of a control effect of the drug agent on weeds was performed after the treatment.
(§3) All of original drugs were using acetone as a solvent, being diluted with 0.1 wt % emulsifier of Tween-80 aqueous solution, and being diluted right before using.
(§4) When determining a ratio or content of the active ingredient A and the active ingredient B, it should be measured from characteristics of action of both agents and virulence thereof, as well as the main purpose of use of a formula shall also be considered in. In the present study, on a basis of previous pre-test, the dosages of the active ingredient A and the active ingredient B were set, when being used alone and mixed, as shown in the following table. Water containing no agent, but containing the same solvent and emulsifier was used as a blank control.
(§5) Repeat 4 times for each treatment, 3 pots per treatment each time and 30 weed seeds were sown for each pot.
(§6) Adopting an absolute number survey method, using a blade to cut the whole seedling of surviving weed along soil surface, and weighting the fresh weight of the weed with an analytical balance. For weeds that had died, counting the fresh weight as zero.
(§7) Survey period and frequency: 21 days after the treatment, total 1 investigation.
(§8) The theoretical fresh weight inhibition rate (E0-Expected Efficacy=[…]) of each treatment combination was calculated by Gowing method, and then compared with the measured inhibition rate (E-Observed Efficacy) to evaluate the combined effect type of both on weeds. When E-E0 value was greater than 10%, it was counted as a synergistic effect, less than −10%, it was counted as an antagonistic effect, and between −10%˜10%, it was counted as an additive effect. According to a plurality of factors including an actual control efficacy, a herbicide characteristic, a formula balance and other factors to determine the best ratio. In the formula, X is the fresh weight inhibition rate of the ingredient A at a dosage of P; Y is the fresh weight inhibition rate of the active ingredient B at a dosage of Q.
(§9) The statistical results are shown in Table 1 to Table 44 below, except for those marked clearly as “pre-emergence treatment”, all others are “post-emergence treatment”. […]

Assay [2] relates to eleusine indica. Description: Indoor virulence and combined effect, greenhouse pot test, pre-emergence soil spray treatment, fresh weight inhibition. How it is done: as §1, §2, §3, §4, §5, §6, §7, §8, §9
The test system of assay [3] is setaria viridis. Description: Indoor virulence and combined effect, greenhouse pot test, post-emergence stem and leaf spray, fresh weight inhibition. The settings on record: for inhibition at 750 g/ha: 750 g a.i./ha; for Fresh weight inhibition rate %, B single agent: Table 10. As to the method:
as §1
as §2, with “Following an experimental design dosage, a WP-2000 walking spray tower (spindle speed 96 mm/r, spray height 200 mm, effective spray amplitude of nozzle 350 mm, nozzle flow rate 390 mL/min, nozzle walking speed 210 mm/s) was used for the spray treatment.” left out, “method.” for “method. A reaction of weeds to the drug agent is observed and recorded, and a regularly visual check of a control effect of the drug agent on weeds was performed after the treatment.”
as §3, §4, §5, §6, §7
When E-E0 value was greater than 10%, it was counted as a synergistic effect, less than −10%, it was counted as an antagonistic effect, and between −10%˜10%, it was counted as an additive effect. […] In the formula, X is the fresh weight inhibition rate of the ingredient A at a dosage of P; Y is the fresh weight inhibition rate of the active ingredient B at a dosage of Q.

Assay [4] has as its system digitaria sanguinalis. Description: Indoor virulence and combined effect, greenhouse pot test, pre-emergence soil spray treatment, fresh weight inhibition. As to the method: as §1, §2, §3, §4, §5, §6, §7, §8, §9
In assay [5] the test system is eclipta prostrata. Description: Indoor virulence and combined effect, greenhouse pot test, post-emergence stem and leaf spray, fresh weight inhibition. How it is done:
as §1, §2, §3, §4, §5, §6, §7, §8, §9

The test system of assay [6] is eclipta prostrata. Description: Indoor virulence and combined effect, greenhouse pot test, pre-emergence soil spray treatment, fresh weight inhibition. As to the method: as §1, §2, §3, §4, §5, §6, §7, §8, §9

Each structure is given as a SMILES string. Like-named read-outs stand apart in the source and are kept apart here.

Broadly, the inhibition is the drop in the measured response relative to a control, in per cent. In the case of `CCSC(C)CC1CC(=O)C(/C(CC)=N/OC/C=C/Cl)=C(O)C1` (stereo not shown) [clethodim], the inhibition at 25 g/ha in assay [1] (Alopecurus japonicus, 504 h, Table 5, post-emergence, 21 days after treatment, read-out: Fresh weight inhibition rate %, B single agent) came out at 7.52%. The inhibition at 40 g/ha in assay [1] (Alopecurus japonicus, 504 h, Table 5, 40 g a.i./ha, post-emergence, 21 days after treatment, read-out: Fresh weight inhibition rate %, B single agent) is 34.8%. Further, in assay [1] (Alopecurus japonicus, 504 h, Table 5, 60 g a.i./ha, post-emergence, 21 days after treatment, read-out: Fresh weight inhibition rate %, B single agent), the inhibition at 60 g/ha amounted to 43%.

Take `CCc1cc(C)cc(CC)c1-c1c(OC(=O)C(C)(C)C)n2n(c1=O)CCOCC2` [pinoxaden]: the inhibition at 15 g/ha in assay [1] (Alopecurus japonicus, 504 h, Table 7, 15 g a.i./ha, post-emergence, 21 days after treatment, read-out: Fresh weight inhibition rate %, B single agent) came to 38.8%. Further, the inhibition at 20 g/ha in assay [1] (Alopecurus japonicus, 504 h, Table 7, 20 g a.i./ha, post-emergence, 21 days after treatment, read-out: Fresh weight inhibition rate %, B single agent) came to 42.3%. In assay [1] (Alopecurus japonicus, 504 h, Table 7, post-emergence, 21 days after treatment, read-out: Fresh weight inhibition rate %, B single agent), the inhibition at 25 g/ha is 58.7%.

For `CCC(CC)Nc1c([N+](=O)[O-])cc(C)c(C)c1[N+](=O)[O-]` [pendimethalin], the “Fresh weight inhibition rate %, B single agent” value (shortened to “Fresh weight inhibition rate %”) in assay [2] (Table 21, B 300 g a.i./ha) was determined as 36.92%; in assay [2] (Table 21, B 375 g a.i./ha), 54.44%.

On to `CCNc1nc(Cl)nc(NC(C)C)n1` [atrazine], for which, in assay [3] (Setaria viridis, 504 h, Table 8, 600 g a.i./ha, post-emergence, 21 days after treatment, read-out: Fresh weight inhibition rate %, B single agent), the inhibition at 600 g/ha amounted to 26.1%. Besides, in assay [3] (Setaria viridis, 504 h, Table 8, post-emergence, 21 days after treatment, read-out: Fresh weight inhibition rate %, B single agent), the inhibition at 750 g/ha worked out at 33%. In assay [3] (Setaria viridis, 504 h, Table 8, 800 g a.i./ha, post-emergence, 21 days after treatment, read-out: Fresh weight inhibition rate %, B single agent), the inhibition at 800 g/ha was determined as 41.6%.

Take `CCC(=O)Nc1ccc(Cl)c(Cl)c1` [propanil]: the inhibition at 500 g/ha in assay [3] (Setaria viridis, 504 h, Table 6, 500 g a.i./ha, post-emergence, 21 days after treatment, read-out: Fresh weight inhibition rate %, B single agent) came out at 48.1%. Moreover, the inhibition at 750 g/ha in assay [3] (Setaria viridis, 504 h, Table 6, post-emergence, 21 days after treatment, read-out: Fresh weight inhibition rate %, B single agent) came to 58.1%. In addition, the inhibition at 1000 g/ha in assay [3] (Setaria viridis, 504 h, Table 6, 1000 g a.i./ha, post-emergence, 21 days after treatment, read-out: Fresh weight inhibition rate %, B single agent) was determined as 69.1%.

For the compound `CCOCN(C(=O)CCl)c1c(C)cccc1CC` [acetochlor], the “Fresh weight inhibition rate %” value in assay [4] (Table 40, B 250 g a.i./ha) is 55.88%; in assay [4] (Table 40, B 375 g a.i./ha), 67.45%.

As to `CC(C)c1ccc(NC(=O)N(C)C)cc1` [isoproturon], the “Fresh weight inhibition rate %” value is 22.19% in assay [3] (B 400 g a.i./ha), 23.26% in assay [3] (B 495 g a.i./ha) and 33.26% in assay [3] (B 600 g a.i./ha).

As to `C#CCN1C(=O)COc2cc(F)c(N3C(=O)C4=C(CCCC4)C3=O)cc21` [flumioxazin], the “Fresh weight inhibition rate %” value in assay [5] (Table 11, B 8 g a.i./ha) is listed as 24.97%; in assay [5] (Table 11, B 16 g a.i./ha), 39.68%; in assay [5] (Table 11, B 20 g a.i./ha), 45.24%; in assay [5] (Table 11, B 30 g a.i./ha) it was 54.24%.

Consider `COC(=O)[C@@H](C)Oc1ccc(Oc2ncc(C(F)(F)F)cc2Cl)cc1` [haloxyfop-P-methyl], for which the “Fresh weight inhibition rate %” value in assay [1] (B 15 g a.i./ha) was 7.80%; in assay [1] (B 25 g a.i./ha) it was 15.29%; in assay [1] (B 40 g a.i./ha) it was 15.32%; in assay [1] (B 60 g a.i./ha) it was 27.52%.

As for `Cc1cc(Cl)ccc1OCC(=O)[O-].[Na+]` [MCPA-sodium], the “Fresh weight inhibition rate %” value in assay [5] (Table 43, B 80 g a.i./ha) was determined as 37.73%; in assay [5] (Table 43, B 160 g a.i./ha), 45.00%.

Take `CCCN(CCC)c1c([N+](=O)[O-])cc(C(F)(F)F)cc1[N+](=O)[O-]` [trifluralin]: the “Fresh weight inhibition rate %” value in assay [4] (Table 39, B 156.25 g a.i./ha) amounted to 12.50%; in assay [4] (Table 39, B 250 g a.i./ha), 48.67%; in assay [4] (Table 39, B 375 g a.i./ha), 62.58%.

For the compound `CCCCCCC(C)OC(=O)COc1nc(F)c(Cl)c(N)c1Cl` (stereo not shown) [fluroxypyr-meptyl], the “Fresh weight inhibition rate %” value is reported as 30.91% in assay [5] (Table 42, B 32 g a.i./ha); 34.55% in assay [5] (Table 42, B 40 g a.i./ha); 39.55% in assay [5] (Table 42, B 60 g a.i./ha); 73.18% in assay [5] (Table 42, B 80 g a.i./ha).

Consider `CCc1cccc(C)c1N(C(=O)CCl)[C@@H](C)COC` [S-metolachlor], for which the “Fresh weight inhibition rate %” value in assay [6] (Table 28, B 300 g a.i./ha) is listed as 45.64%; in assay [6] (Table 28, B 450 g a.i./ha) it was 57.41%; in assay [6] (Table 28, B 600 g a.i./ha), 61.78%; in assay [6] (Table 28, B 750 g a.i./ha), 70.72%.
